Assay in all cases: DTP human tumour cell line panel, 48 h
For test [1], the system named is DU-145 prostate.
The subject of test [2] is NCI/ADR-RES ovarian.
The subject of test [3] is HS 578T breast.
Test [4] deals with MDA-MB-435.

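Five concentrations, 48 hours, 96-well plates. The concentration for 50% growth inhibition is given as GI50. TGI marks complete inhibition of growth.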 A value given as a limit tells only on which side of the number the result lay.

In the case of `COc1ccc(-c2cnc(-c3ccncc3-c3cccc(OC)c3)o2)cc1`, the concentration for 50% growth inhibition (GI50) – broadly, the concentration at which growth is held to half of that of the control – in test [1] is 0.0408 µM; in test [2], 0.0265 µM; in test [3], 0.0354 µM. Also, the TGI (usually the concentration at which net growth stops) in test [1] turned out to be 12.9 µM; in test [2] it was 30.1 µM; in test [3], 20.2 µM.
`CN(C)CCNC(=O)Nc1ccc(N(C)c2ccnc(Nc3ccc(CS(C)(=O)=O)cc3)n2)cc1`: the GI50 is above 25 µM in test [1], above 25 µM in test [2], above 25 µM in test [4] and above 19.8 µM in test [3]. For the same molecule, the TGI in test [1], in test [2], in test [4] and in test [3] was above 25 µM throughout.
For the molecule `OCC1OC(OC2(CO)OC(CO)C(O)C2O)C(O)C(O)C1O` (centres undefined), the GI50 in test [1], in test [2] and in test [4] was above 100 µM in each case. In addition, the total growth inhibition concentration (TGI) in test [1], in test [2] and in test [4] was above 100 µM in each case.
Take `OCCNc1nc2ccccc2c2[nH]c3ccccc3c12`: the GI50 in test [1] is 0.659 µM; in test [2], 0.738 µM; in test [4], 0.528 µM; in test [3], 0.71 µM. In addition, the TGI in test [1] worked out at 12.5 µM; in test [2], 5.18 µM; in test [4], 1.81 µM; in test [3], 4.57 µM.
`Nc1nc(Cl)c2ncn(Cc3ccc(C45CC6CC(CC(C6)C4)C5)c(OCc4cc(F)c(F)cc4F)c3)c2n1`: the GI50 is 4.08 µM in test [1], 3.5 µM in test [2], 2.98 µM in test [4] and 12.1 µM in test [3]. For the same molecule, the TGI is 15.7 µM in test [1], 13.8 µM in test [2], 17.6 µM in test [4] and 71.3 µM in test [3].
Regarding `C#COc1cccc(Nc2ncnc3cc(NC(=O)[C@@H](C)Cl)ccc23)c1`, the GI50 was 16.2 µM in test [1], 5.21 µM in test [2], 1.65 µM in test [4] and 7.88 µM in test [3]. In addition, the concentration for total growth inhibition (TGI) in test [1] was above 62.5 µM; in test [2] it was 34.6 µM; in test [4], 4.66 µM; in test [3], above 62.5 µM.
For the molecule `Cn1cc(-c2ccc3ncc(-c4ccc(CC(=O)Nc5cc(C(C)(C)C)nn5C)cc4)cc3c2)cn1`, the GI50 is 1.1 µM in test [1], 0.749 µM in test [2], 1.25 µM in test [4] and 0.798 µM in test [3]. Further, the TGI in test [1] was above 20 µM; in test [2] it was 6.77 µM; in test [4], above 20 µM; in test [3], above 20 µM.
Turning to `O=C(Nc1nc2ccc(S(=O)(=O)Nc3ccc(C4(C(F)(F)F)CC4)cc3)cc2[nH]1)c1cnccn1`, the GI50 is 2.88 µM in test [1], 1.73 µM in test [2], 0.33 µM in test [4] and 2.57 µM in test [3]. In addition, the TGI in test [1] amounted to 13.2 µM; in test [2], 11.8 µM; in test [4], 1.4 µM; in test [3], 13.5 µM.
On to `CC(=O)Nc1cccc(C#Cc2cncnc2Nc2ccc(OCc3cccc(F)c3)c(Cl)c2)c1`, for which the GI50 in test [1] was 10 µM; in test [2], 6.86 µM; in test [4], 8.14 µM; in test [3], 10.2 µM. The TGI in test [1], in test [2], in test [4] and in test [3] was above 25 µM each time.
Regarding `O=c1[nH]c2ccccc2cc1-c1nnc(Cc2ccccc2)o1`, the GI50 in test [1] is 5.18 µM; in test [2], 14.4 µM; in test [4], 3.51 µM; in test [3] it was 13.3 µM. Also, the TGI in test [1] is 18.5 µM; in test [2] it was 71.1 µM; in test [4], 17.5 µM; in test [3] it was above 100 µM.
On to `O=c1[nH]c(=S)[nH]c(O)c1/C=C1\C=Nc2ccccc21`, for which the GI50 was 10.3 µM in test [1], 6.64 µM in test [2], 2.01 µM in test [4] and 1.95 µM in test [3]. Besides, the total growth inhibition concentration (TGI) in test [1] was 35.4 µM; in test [2] it was 58 µM; in test [4] it was 4.94 µM; in test [3] it was 6.19 µM.
Consider `OCc1ccc(-c2ccc(-c3ccc(CO)o3)o2)o1`, for which the GI50 in test [1] is above 62.4 µM; in test [2], above 100 µM; in test [4] it was above 100 µM; in test [3], above 31.2 µM. For the same molecule, the TGI in test [1] is above 100 µM; in test [2], above 100 µM; in test [4], above 100 µM; in test [3] it was above 62.6 µM.
Take `CN(C)C1C(=O)C(C(N)=O)=C(O)C2(O)C(=O)C3=C(O)c4c(O)cccc4C(C)(O)C3CC12.[Cl][Sb]([Cl])[Cl]` (centres undefined): the GI50 in test [1] was 4.33 µM; in test [2], 3.19 µM; in test [4] it was 2.91 µM; in test [3] it was 3 µM. Moreover, the TGI in test [1] was 14.9 µM; in test [2], 16.6 µM; in test [4], 10.4 µM; in test [3], above 100 µM.
Consider `CCOC(=O)[C@@H](C)C[C@H](Cc1ccccc1)NC(=O)c1csc([C@@H](C[C@H](C(C)C)N(C)C(=O)CNC(=O)[C@H]2CCCCN2C)OC(C)=O)n1`, for which the GI50 in test [1] was 0.58 µM; in test [2], above 14.3 µM; in test [4], 0.228 µM; in test [3] it was 1.5 µM. The TGI was above 9.17 µM in test [1], above 14.3 µM in test [2], 0.801 µM in test [4] and above 8.43 µM in test [3].
As for `COC(=O)c1ccc(NC(N)=NCCC(C)(C)c2ccc(C(F)(F)F)cc2)nc1`, the GI50 in test [1] is 3.44 µM; in test [2], 2.35 µM; in test [4], 1.83 µM; in test [3], 2.98 µM. In addition, the TGI in test [1] came to 13.9 µM; in test [2], 6.03 µM; in test [4], 4.16 µM; in test [3] it was 9.9 µM.
For the molecule `N#CN1CC[C@H](C(=O)Nc2ncc(-c3ccccc3)s2)C1`, the GI50 in test [1] is 0.814 µM; in test [2] it was 0.724 µM; in test [4], 0.273 µM; in test [3] it was 0.811 µM. The TGI in test [1] came out at 2.04 µM; in test [2] it was 8.01 µM; in test [4], 1.73 µM; in test [3], 5.05 µM.

For the origin of these results see PubChem BioAssay (NCI).
